Data: patent US8946201B2, “Methods for inhibiting TGF-β” (Saint Louis University, priority 2007, dated 2015)

Tests used:
TβR-I and TβR-II = experiment: 125I-TGF-β1 affinity labeling, Mv1Lu cells; assay type: cell-based, mink; details: for effect on the LDL- or cholesterol-induced increase of 125I-TGF-β1 binding to TβR-I: co-treatment, β-CD 8 mM, nystatin 25 μg/ml, cholest-4-en-3-one 50 μg/ml (FIG. 4B, C)
Experimental: (A) Mv1Lu cells were treated with 50 μg/ml cholesterol at 37° C. After several time periods, as indicated, ^125I-TGF-β1-affinity labeling was performed at 0° C. ^125I-TGF-β1 affinity-labeled TGF-β receptors were analyzed by 7.5% SDS-PAGE and autoradiography (a) and quantified with a PhosphoImager. The bracket indicates the locations of ^125I-TGF-β1 affinity-labeled TβR-I and TβR-II. The ratio of ^125I-TGF-β1 binding to TβR-II and TβR-I is plotted against incubation time (b).
(B, C, D, E) Cells were treated with increasing concentrations of cholesterol in the presence (C) and absence (B, D, E) of 0.2% β-CD, as indicated. After 1 hr at 37° C., ^125I-TGF-β1 affinity labeling of TβR-I and TβR-II in cells was performed at 0° C. ^125I-TGF-β1 affinity-labeled TβR-I and TβR-II were analyzed by 7.5% SDS-PAGE and autoradiography or quantified with a PhosphoImager. A representative of a total of three analyses is shown (top). The bracket indicates the locations of ^125I-TGF-β affinity-labeled TβR-I and TβR-II. The relative intensities of ^125I-TGF-β1 affinity-labeled TβR-I and TβR-II in cells treated without cholesterol were taken as 100%. The quantitative data from three analyses is shown (bottom).
The bracket indicates the locations of ^125I-TGF-β1 affinity-labeled TβR-I and TβR-II. The relative intensities of ^125I-TGF-β1-TβR-I and ^125I-TGF-β1-TβR-II complexes, which were quantified with a PhosphoImager, are plotted against TGF-β1 concentrations (bottom).
(A, B, C, D, E, F) Cells were treated with LDL (50 μg protein/ml), VLDL (5 μg protein/ml), HDL (50 μg protein/ml), lipoprotein (a) (10 μg/ml), fluvastatin (F; 1 μM), lovastatin (L; 1 μM), nystatin (Nys; 25 μg/ml), β-CD (β-CD; 8 mM), cholest-4-en-3-one (3-one; 50 μg/ml) or cholesterol (Chol; 50 μg/ml) alone or combination of two. After 1 hr at 37° C. or 16 hr at 37° C. (for fluvastatin and lovastatin), ^125I-TGF-β1 affinity labeling of cell-surface TGF-β receptors was performed at 0° C. ^125I-TGF-β1 affinity-labeled TβR-I and TβR-II were analyzed by 7.5% SDS-PAGE and autoradiography. The relative intensities of TβR-I and TβR-II were quantified with a PhosphoImager. The ratio of ^125I-TGF-β1 binding to TβR-II and TβR-I were estimated. The numbers above the lane sequence denote the ratio of TβR-II/TβR-I.
(G) Mv1Lu cells were treated with 50 μg/ml of cholesterol and cholesterol analogs/derivatives including 25-hydroxycholesterol, 7-dehydrocholesterol (7-DHC), 7-ketocholesterol, 7β, 8β-epoxycholesterol, 7β-hydroxycholesterol, and oxidized 7-dehydrocholesterol (oxy-7DHC). After 1 hr at 37° C., ^125I-TGF-β1 affinity labeling of TGF-β receptors was performed. ^125I-TGF-β1 affinity-labeled TβR-I and TβR-II were analyzed by 7.5% SDS-PAGE and autoradiography. The bracket indicates the locations of ^125I-TGF-β1-affinity-labeled TβR-I and TβR-II. The relative intensities of ^125I-TGF-β1 affinity-labeled TβR-I and TβR-II were determined by a PhosphoImager. The ratios of ^125I-TGF-β1 binding to TβR-II and TβR-I were estimated. The numbers above the lane sequence denote the ratio of TβR-II/TβR-I.
After cross-linking, cell lysates were analyzed by 7.5% SDS-PAGE and autoradiography or quantified by a PhosphoImager. For all experiments, cholesterol or cholesterol derivatives were prepared as the stock solution with a concentration of 25 mg/ml in ethanol. The final concentration of ethanol in the medium was 0.2% (by vol.).

TβR-II = experiment: TGF-β1-induced degradation of TβR-II, Western blot; assay type: cell-based; details: 1% β-CD
Experimental: (E) Cells were treated with several concentrations of cholesterol (a,b) or LDL (c,d) as indicated in the presence and absence of 1% β-CD at 37° C. for 1 hr and further incubated with 50 pM TGF-β for 1 hr. The cell lysates were then subjected to 7.5% SDS-PAGE and Western blot analysis using antibodies to TβR-II and α-actin (a,c). The relative intensities of TβR-II and α-actin on the blot were quantified by densitometry (b,d). The ratio of the relative intensities of TβR-II and α-actin in cells treated without TGF-β1 was taken as the 100% level of TβR-II.
(F, G) Cells were treated with or without 1 μM lovastatin/fluvastatin or nystatin (25 μg/ml)/cholesterol (50 μg/ml) at 37° C. for 16 hr or 1 hr, respectively. The treated cells were directly analyzed by sucrose density gradient ultracentrifugation analysis (F) or further incubated with 50 pM TGF-β at 37° C. for several time periods as indicated (G). Western blot analysis of the sucrose density gradient fractions (F) and of TGF-β1-treated cell lysates (G) was performed using antibody to TβR-II. The relative levels of TβR-II and α-actin were quantified by densitometry. Fractions ⅘ and 7 represent lipid raft/caveolae and non-lipid raft fractions, respectively. […] The quantitative data from three independent analyses is shown (G, bottom). […]
Cells grown to near confluence on 12-well cluster dishes were treated with cholesterol or LDL in serum-free DMEM (vol.=0.5 ml/well) at 37° C. for 1 hr. […] Treated cells were lysed and cell lysates were analyzed by 7.5% SDS-PAGE and Western blot analysis using anti-Smad2, anti-P-Smad2, anti-caveolin-1, anti-TβR-I (alk5) or anti-TβR-II antibodies as described previously (30). […]
Lipid raft/caveolae-mediated endocytosis of receptor-bound TGF-β results in rapid degradation of TGF-β1 and suppression of TGF-β responsiveness. […] To test this, we analyzed the lipid raft/caveolae and non-lipid raft localization of TβR-I and TβR-II in the plasma membrane of cells treated with or without cholesterol (50 μg/ml) using sucrose density gradient ultracentrifugation analysis. […]

Mv1Lu cells = experiment: [Methyl-3H]thymidine incorporation (DNA synthesis), Mv1Lu cells; assay type: cell-based, mink; details: 18 hr
Experimental: (A, B, C, D, E, F) Cells were treated with 50 μg/ml cholesterol (A, B, C, D) and 50 μg/ml LDL (D) at 37° C. for 1 hr or with 1 μM fluvastatin or lovastatin (E) or several concentrations of fluvastatin (F) at 37° C. for 16 hr and then further incubated with increasing concentrations (as indicated) of TGF-β1 (A, B, C, E) or 50 pM TGF-β1 (D,F) for 2 hr. Northern blot analysis of PAI-1 and G3PDH was performed. A representative of a total of three analyses is shown (a). The relative intensities of the transcripts were quantified with a PhosphoImager. The ratio of the relative intensities of PAI-1 and G3PDH transcripts in cells treated without TGF-β1 and cholesterol, LDL or statins on the blot was taken as 1 fold or 100% of PAI-1 expression. The quantitative data from three independent analyses is shown (b). […] (G) Mv1Lu cells stably expressing a luciferase reporter gene driven by the PAI-1 promoter (MLECs-clone 32) were treated with increasing concentrations (as indicated) of cholesterol at 37 EC for 1 hr (a) or with 1 μM lovastatin at 37° C. for 16 hr (b) and then further incubated with 50 pM TGF-β for 7 hr. The luciferase activity in cells treated without cholesterol was taken as 100% (a). […] (H) Cells were incubated with 0.0625 and 0.125 pM TGF-β1 in the presence of increasing concentrations of cholesterol, as indicated. After 18 hr at 37° C., cell growth was determined by measurement of [^3H-methyl]thymidine incorporation into cellular DNA (a). The [^3H-methyl]thymidine incorporation in cells treated with vehicle only (T1); with TGF-β1 (T2); with cholesterol (T3); with cholesterol and TGF-β1 (T4) was measured. T1 was taken as 100%. The degree (%) of cholesterol-mediated reversal of TGF-β1 growth inhibition was estimated by the equation: % reversal=[1−(T3−T4/T1−T2)]×100 Cholesterol appeared to reverse TGF-β1 growth inhibition in a dose-dependent manner (b). The experiments were carried out in triplicate.
The growth of cholesterol-treated cells was determined by measurement of [methyl-^3H]thymidine incorporation into cellular DNA as described (30). Briefly, cells grown near confluence on 48-well clustered dishes were treated with several concentrations of cholesterol at 37° C. for 1 hr in serum-free DMEM. The final concentration of ethanol (the vehicle for cholesterol) in the medium was 0.2%. […] The [methyl-^3H]thymidine incorporation into cellular DNA was then determined by incubation of cells with [methyl-^3H]thymidine at 37° C. for 2 hr in DMEM containing 0.1% fetal calf serum. […]
Another prominent biological activity of TGF-β is growth inhibition of many different cell types. […] DNA synthesis was then determined by measurement of [^3H-methyl]thymidine incorporation into cellular DNA (FIG. 2Ha). […]

| Compound | effect on the LDL- or cholesterol-induced increase of 125I-TGF-β1 binding to TβR-I (TβR-I and TβR-II) | effect on the cholesterol-enhanced TGF-β1-induced degradation of TβR-II (TβR-II) | half-maximum concentrations of binding to TβR-I and TβR-II (TβR-I and TβR-II; Mv1Lu cells treated with and without cholesterol, 0° C. 2.5 hr) [pM] | Kd (TβR-I and TβR-II; stated identical to the half-maximum concentration, read-out: apparent Kd of binding to the TGF-β receptors) [nM] | inhibition of DNA synthesis (Mv1Lu cells; 0.0625 pM) [%] | inhibition of DNA synthesis (Mv1Lu cells; 0.125 pM) [%] |
| --- | --- | --- | --- | --- | --- | --- |
| CC(C)CCC[C@@H](C)[C@H]1CC[C@H]2[C@@H]3CCC4=CC(=O)CC[C@]4(C)[C@H]3CC[C@]12C [4-cholesten-3-one, reference compound] | abolished |  |  |  |  |  |
| OC[C@H]1O[C@@H]2O[C@H]3[C@H](O)[C@@H](O)[C@@H](O[C@H]4[C@H](O)[C@@H](O)[C@@H](O[C@H]5[C@H](O)[C@@H](O)[C@@H](O[C@H]6[C@H](O)[C@@H](O)[C@@H](O[C@H]7[C@H](O)[C@@H](O)[C@@H](O[C@H]8[C@H](O)[C@@H](O)[C@@H](O[C@H]1[C@H](O)[C@H]2O)O[C@@H]8CO)O[C@@H]7CO)O[C@@H]6CO)O[C@@H]5CO)O[C@@H]4CO)O[C@@H]3CO [β-CD, β-cyclodextrin, reference compound] | abolished | abolished |  |  |  |  |
| TGF-β1: transforming growth factor-beta 1, 25-kDa dimeric cytokine; also used 125I-labelled |  |  | 50 to 80 | 0.05 to 0.08 | ~30 | ~40 |
